Biological target: T1, cell-surface VLA-4 (α4β1 integrin) on Ramos cells binding to immobilized VCAM-1 (Homo sapiens, UniProt P05556+P13612)
T1 construct: Ramos cells bearing cell-surface VLA-4; endogenous in cells; host or cells: Ramos cells (VLA-4); VCAM-1 purified from CHO cell culture media
Test: Ramos (VLA-4)/VCAM-1 Cell-Based Screening Assay (cell adhesion)
Conditions: Calcein-AM labeled Ramos cells, VCAM-1 coated plates, 45 min at room temperature; read-out: IC50 in Ramos Cell Based Assay
Source text: Calcein-AM was purchased from Molecular Probes Inc.
VLA-4 (α4β1 integrin) antagonist activity, defined as ability to compete with cell-surface VLA-4 for binding to immobilized VCAM-1, was quantitated using a Ramos-VCAM-1 cell adhesion assay. Ramos cells bearing cell-surface VLA-4, were labeled with a fluorescent dye (Calcein-AM) and allowed to bind VCAM-1 in the presence or absence of test compounds.
Initially, this entailed coating 96 well plates (Nunc Maxisorp) with recombinant human VCAM-1 (100 ng in 100 μl PBS), sealing each plate and allowing the plates to stand at 4° C for Å18 hr. The VCAM-coated plates were subsequently washed twice with 0.05% Tween-20 in PBS, and then blocked for 1hr (room temperature) with 200 μl of Blocking Buffer (1% BSA/0.02% thimerosal) to reduce non-specific binding. Following the incubation with Blocking Buffer, plates were inverted, blotted and the remaining buffer aspirated. Each plate was then washed with 300 μl PBS, inverted and the remaining PBS aspirated.
Test compounds were dissolved in 100% DMSO and then diluted 1:25 in VCAM Cell Adhesion Assay Buffer (4 mM CaCl2, 4 mM MgCl2 in 50 mM TRIS-HCl, pH 7.5) (final DMSO=4%). […] 100 μl/well of each dilution was added to the VCAM-coated plates, followed by 100 μl of Ramos cells (200,000 cells/well in 1% BSA/PBS). […] Plates were inverted to remove non-adherent cells, blotted and 300 μl/well PBS added. Plates were again inverted, blotted and the remaining buffer gently aspirated. 100 μl Lysis Buffer (0.1% SDS in 50 mM TRIS-HCl, pH 8.5) was added to each well and agitated for 2 min on a rotary shaking platform.

T1 sequence (P13612 34-1032): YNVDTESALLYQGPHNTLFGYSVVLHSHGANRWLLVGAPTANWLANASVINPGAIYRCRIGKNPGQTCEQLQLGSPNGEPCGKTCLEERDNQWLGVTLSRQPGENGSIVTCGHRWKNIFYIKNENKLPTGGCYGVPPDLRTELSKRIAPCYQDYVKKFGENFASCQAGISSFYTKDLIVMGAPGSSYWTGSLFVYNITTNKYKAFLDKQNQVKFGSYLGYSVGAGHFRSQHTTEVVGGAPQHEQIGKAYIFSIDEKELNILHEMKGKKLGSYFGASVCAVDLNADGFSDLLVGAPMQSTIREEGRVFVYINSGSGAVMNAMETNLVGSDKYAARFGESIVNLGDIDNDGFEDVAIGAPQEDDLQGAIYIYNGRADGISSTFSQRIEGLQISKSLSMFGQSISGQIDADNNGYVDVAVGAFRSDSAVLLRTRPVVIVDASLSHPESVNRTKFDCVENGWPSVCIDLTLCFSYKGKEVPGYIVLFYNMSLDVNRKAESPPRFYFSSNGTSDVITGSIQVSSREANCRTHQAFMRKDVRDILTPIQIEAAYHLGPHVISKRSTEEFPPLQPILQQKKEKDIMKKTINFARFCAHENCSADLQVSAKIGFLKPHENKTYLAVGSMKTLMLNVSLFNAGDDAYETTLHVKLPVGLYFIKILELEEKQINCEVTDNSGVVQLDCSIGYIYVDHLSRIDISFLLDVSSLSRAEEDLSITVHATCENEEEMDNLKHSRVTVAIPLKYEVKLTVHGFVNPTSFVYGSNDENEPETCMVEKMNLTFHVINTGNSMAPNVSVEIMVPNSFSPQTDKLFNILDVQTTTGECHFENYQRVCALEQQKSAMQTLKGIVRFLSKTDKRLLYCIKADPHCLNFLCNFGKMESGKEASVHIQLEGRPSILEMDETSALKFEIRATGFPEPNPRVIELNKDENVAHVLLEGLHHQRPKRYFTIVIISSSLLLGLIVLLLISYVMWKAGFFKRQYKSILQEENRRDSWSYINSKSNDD
T1 sequence (P05556 21-798): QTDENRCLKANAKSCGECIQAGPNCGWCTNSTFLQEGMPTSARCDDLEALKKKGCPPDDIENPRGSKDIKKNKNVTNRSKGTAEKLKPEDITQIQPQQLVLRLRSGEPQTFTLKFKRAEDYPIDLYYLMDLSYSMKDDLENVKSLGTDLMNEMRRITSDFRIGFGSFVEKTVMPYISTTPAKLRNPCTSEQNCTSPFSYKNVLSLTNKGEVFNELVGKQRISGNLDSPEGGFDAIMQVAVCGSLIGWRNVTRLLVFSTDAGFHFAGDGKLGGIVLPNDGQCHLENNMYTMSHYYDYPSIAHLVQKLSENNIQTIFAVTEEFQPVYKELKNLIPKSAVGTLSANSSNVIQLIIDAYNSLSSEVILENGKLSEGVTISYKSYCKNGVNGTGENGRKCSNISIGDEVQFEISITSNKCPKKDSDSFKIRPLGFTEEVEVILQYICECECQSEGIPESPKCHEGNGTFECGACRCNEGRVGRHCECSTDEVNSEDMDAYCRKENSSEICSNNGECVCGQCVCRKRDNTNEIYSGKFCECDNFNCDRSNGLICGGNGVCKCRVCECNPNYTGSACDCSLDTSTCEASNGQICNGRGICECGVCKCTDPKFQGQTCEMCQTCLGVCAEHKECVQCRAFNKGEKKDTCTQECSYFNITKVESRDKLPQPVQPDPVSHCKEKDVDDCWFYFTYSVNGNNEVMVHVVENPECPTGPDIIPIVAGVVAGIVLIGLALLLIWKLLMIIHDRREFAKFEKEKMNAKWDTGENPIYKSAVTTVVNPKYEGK

Row | IC50 | SMILES
1 | 19 nM | CCCC(=O)N1C(c2ccccc2)N(c2ccc(C[C@H](NC(=O)C3(CCNC(C)=O)CCCC3)C(=O)O)cc2)C(=O)[C@H]1C (single isomer, unassigned) [Example 344]
2 | 2.9 nM | COc1ccc(C[C@@H]2C(=O)N(c3ccc(C[C@H](NC(=O)C4(CCNC(C)=O)CCCC4)C(=O)O)cc3)C(c3ccccc3)N2C(=O)COc2ccccc2)cc1 (single isomer, unassigned) [Example 284]
3 | 5 nM | CS(=O)(=O)CCCCC1(C(=O)N[C@@H](Cc2ccc(NC(=O)c3c(Cl)cccc3Cl)cc2)C(=O)O)CCCC1 [Example 263]
4 | 13.5 nM | COCCC1(C(=O)N[C@@H](Cc2ccc(NC(=O)c3c(Cl)cccc3Cl)cc2)C(=O)O)CCCC1 [Example 59]
5 | 13 nM | CCCC(=O)N1C(c2ccc(Cl)cc2)N(c2ccc(C[C@H](NC(=O)C3(CCNC(C)=O)CCCC3)C(=O)O)cc2)C(=O)[C@H]1C (single isomer, unassigned) [Example 351]
6 | 1.7 nM | CC(=O)NCCC1(C(=O)N[C@@H](Cc2ccc(N3C(=O)[C@@H](Cc4cccnc4)N(C(C)=O)C3c3ccccc3)cc2)C(=O)O)CCCC1 (single isomer, unassigned) [Example 299]
7 | 130 nM | COC(=O)NC(=O)NCCC1(C(=O)N[C@@H](Cc2ccc(NC(=O)c3c(Cl)cccc3Cl)cc2)C(=O)O)CCCC1 [Example 189]
8 | 40 nM | COc1ccc(C[C@@H]2C(=O)N(c3ccc(C[C@H](NC(=O)C4(CCNC(C)=O)CCCC4)C(=O)O)cc3)C(CCc3ccccc3)N2C(C)=O)cc1 (single isomer, unassigned) [Example 293]
9 | 24 nM | COc1ccc(C[C@@H]2C(=O)N(c3ccc(C[C@H](NC(=O)C4(CCNC(C)=O)CCCC4)C(=O)O)cc3)C(c3ccc(Cl)cc3)N2C(C)=O)cc1 (single isomer, unassigned) [Example 286]
10 | 4.2 nM | CCCC(=O)N1C(c2ccccc2)N(c2ccc(C[C@H](NC(=O)C3(CCNC(C)=O)CCCC3)C(=O)O)cc2)C(=O)[C@H]1Cc1ccc(OC)cc1 (single isomer, unassigned) [Example 280]
11 | 184 nM | [N-]=[N+]=NCCCCC1(C(=O)N[C@@H](Cc2ccc(NC(=O)c3c(Cl)cccc3Cl)cc2)C(=O)O)CCCC1 [Example 261]
12 | 650 nM | O=C(NCCC1(C(=O)N[C@@H](Cc2ccc(NC(=O)c3c(Cl)cccc3Cl)cc2)C(=O)O)CCCC1)Nc1ccccc1[N+](=O)[O-] [Example 190]
13 | 322 nM | O=C(NCCC1(C(=O)N[C@@H](Cc2ccc(NC(=O)c3c(Cl)cccc3Cl)cc2)C(=O)O)CCCC1)NCc1ccccc1 [Example 191]
14 | 13 nM | CC(=O)NCCC1(C(=O)N[C@@H](Cc2ccc(N3C(=O)[C@@H](C)N(C(C)=O)C3c3ccc(Cl)cc3)cc2)C(=O)O)CCCC1 (mixture of isomers) [Example 350]

Row | SMILES | IC50
15 | COc1ccc(C[C@@H]2C(=O)N(c3ccc(C[C@H](NC(=O)C4(CCNC(C)=O)CCCC4)C(=O)O)cc3)C(c3ccccc3)N2C(C)=O)cc1 (single isomer, unassigned) [Example 278] | 2 nM
16 | CC(=O)NCCC1(C(=O)N[C@@H](Cc2ccc(N3C(=O)[C@@H](Cc4ccccc4)N(C(C)=O)C3c3ccccc3)cc2)C(=O)O)CCCC1 (single isomer, unassigned) [Example 311] | 3 nM
17 | CSCCCCC1(C(=O)N[C@@H](Cc2ccc(NC(=O)c3c(Cl)cccc3Cl)cc2)C(=O)O)CCCC1 [Example 260] | 130 nM
18 | CCCC(=O)N1C(c2ccc(Cl)cc2)N(c2ccc(C[C@H](NC(=O)C3(CCNC(C)=O)CCCC3)C(=O)O)cc2)C(=O)[C@H]1Cc1ccccc1 (single isomer, unassigned) [Example 322] | 5 nM
19 | CC(=O)NCCCC1(C(=O)N[C@@H](Cc2ccc(NC(=O)c3c(Cl)cccc3Cl)cc2)C(=O)O)CCCC1 [Example 276, N-[[1-(3-(Acetylamino)propyl]cyclopenyl]carbonyl]-4-[[(2,6-dichlorophenyl)carbonyl]amino]-L-phenylalanine] | 22 nM

Same assay, conditions: Conc. 10 nM; Ramos cell adhesion to VCAM-1

Row | inhibition at 0.01 µM | SMILES
20 | 32% | CCCC(=O)N1C(Cc2cccnc2)C(=O)N(c2ccc(CC(NC(=O)C3(CCNC(C)=O)CCCC3)C(=O)O)cc2)C1c1ccccc1 (stereo not shown) [Example 300]
21 | 59% | CCCC(=O)N1C(Cc2ccccc2)C(=O)N(c2ccc(CC(NC(=O)C3(CCNC(C)=O)CCCC3)C(=O)O)cc2)C1c1ccc(Cl)cc1 (single isomer, unassigned) [Example 321]
22 | 58% | CC(=O)NCCC1(C(=O)NC(Cc2ccc(N3C(=O)C(C)N(C(=O)COc4ccccc4)C3c3ccccc3)cc2)C(=O)O)CCCC1 (single isomer, unassigned) [Example 349]
23 | 24% | CC(=O)NCCC1(C(=O)NC(Cc2ccc(N3C(=O)C(C)N(C(C)=O)C3c3ccccc3)cc2)C(=O)O)CCCC1 (single isomer, unassigned) [Example 342]
24 | 35% | CCCC(=O)N1C(Cc2cccnc2)C(=O)N(c2ccc(CC(NC(=O)C3(CCNC(C)=O)CCCC3)C(=O)O)cc2)C1c1ccc(Cl)cc1 (stereo not shown) [Example 304]
25 | 70% | CC(=O)NCCC1(C(=O)NC(Cc2ccc(N3C(=O)C(Cc4cccnc4)N(C(C)=O)C3c3ccc(Cl)cc3)cc2)C(=O)O)CCCC1 (stereo not shown) [Example 303]
26 | 92% | CCCC(=O)N1C(Cc2ccc(OC)cc2)C(=O)N(c2ccc(CC(NC(=O)C3(CCNC(C)=O)CCCC3)C(=O)O)cc2)C1c1ccc(Cl)cc1 (single isomer, unassigned) [Example 288]
27 | 48% | COc1ccc(CC2C(=O)N(c3ccc(CC(NC(=O)C4(CCNC(C)=O)CCCC4)C(=O)O)cc3)C(c3ccc(Cl)cc3)N2C(=O)COc2ccccc2)cc1 (single isomer, unassigned) [Example 291]
28 | 17% | CC(=O)NCCC1(C(=O)NC(Cc2ccc(N3C(=O)C(Cc4ccccc4)N(C(=O)COc4ccccc4)C3c3ccccc3)cc2)C(=O)O)CCCC1 (single isomer, unassigned) [Example 317]
29 | 68% | CCCC(=O)N1C(Cc2ccccc2)C(=O)N(c2ccc(CC(NC(=O)C3(CCNC(C)=O)CCCC3)C(=O)O)cc2)C1c1ccccc1 (single isomer, unassigned) [Example 313]
30 | 68% | CC(=O)NCCC1(C(=O)NC(Cc2ccc(N3C(=O)C(Cc4ccccc4)N(C(C)=O)C3c3ccc(Cl)cc3)cc2)C(=O)O)CCCC1 (single isomer, unassigned) [Example 319]

Same assay, conditions: IC50 in Ramos Cell Based Assay (nM), Calcein-AM labeled Ramos cells, VCAM-1 coated plates, 45 min at room temperature

Row | SMILES | IC50
31 | CC(C)(C)C(=O)NCCC1(C(=O)N[C@@H](Cc2ccc(NC(=O)c3c(Cl)cccc3Cl)cc2)C(=O)O)CCCC1 [Example 156, 4-[[(2,6-dichlorophenyl)carbonyl]amino]-N-[[1-[2-[[N-(1,1-dimethylethyl)carbonyl]amino]ethyl]cyclopentyl]carbonyl]-L-phenylalanine] | 28 nM
32 | N#CCCCCC1(C(=O)N[C@@H](Cc2ccc(NC(=O)c3c(Cl)cccc3Cl)cc2)C(=O)O)CCCC1 [Example 262] | 39 nM
33 | NC(=O)NCCC1(C(=O)N[C@@H](Cc2ccc(NC(=O)c3c(Cl)cccc3Cl)cc2)C(=O)O)CCCC1 [Example 188] | 36 nM
34 | CSCCCCC1(C(=O)N[C@@H](Cc2ccc(NC(=O)c3c(Cl)cccc3Cl)cc2)C(=O)O)CCCC1 [Example 260] | 94 nM

From US6455550B1, “N-alkanoylphenylalanine derivatives” (Hoffmann-La Roche Inc., priority 1997, dated 2002)
